Assays:
[1] = system: THP1 (THP-1) cells; experiment: CellTiter-Glo cell viability (single agent and combination); type: cell-based; conditions: THP1, 72 h
[2] = system: MOLM-13-R-PKC412 (midostaurin-resistant) cells; experiment: CellTiter-Glo cell viability; type: cell-based, human
Description: In the clinic, tyrosine kinase inhibitors that target FLT3 initially show positive responses, but patients inevitably relapse due to the development of drug-resistance through various mechanisms, as discussed above.

[3] = system: BaF3 cells harboring EGFR exon20 V769_D770insASV; experiment: CellTiter-Glo cell viability; type: cell-based, murine
Description: (§1) To determine whether MPC-0767 can also promote degradation of an EGFR exon20ins mutant, the BaF3 murine cell line was used (Warmuth et al., Curr Opin Oncol., 200719: 55-60). This cell line is dependent upon exogenous IL-3 for survival/growth but upon introduction of an oncogene, the cells no longer depend on exogenous IL-3, and instead survival is driven by the introduced oncogene. Thus, drugs that target the introduced oncogene will reduce BaF3 cell viability providing a mechanism to screen small molecules against relevant oncogenic mutations that arise in the clinic.
(§2) BaF3 cells harboring EGFR wild type (WT) or EGFR exon20 V769_D770insASV mutant were treated with increasing concentrations of MPC-0767 for 24 hours. After this time, cells were harvested for flow cytometry to assess cell surface EGFR expression (antibody for detection recognized both WT and mutant proteins). […] We further tested whether this finding translated to reduced survival in BaF3 cells expressing the EGFR mutant. Parental BaF3 cells (no mutant) or cells harboring EGFR exon20 V769_D770insASV were treated with increasing concentrations of MPC-0767 for 72 hours after which cell viability was determined using CellTiter-Glo®.

[4] = system: Parental BaF3 cells; experiment: CellTiter-Glo cell viability; type: cell-based, murine; conditions: Mus musculus; parental BaF3, 72 hours
Description: as §1, §2

[5] = system: NOMO1 (NOMO-1) cells; experiment: CellTiter-Glo cell viability (single agent and combination); type: cell-based; conditions: NOMO1, 72 h
[6] = system: phospho-S6 in MOLM-13 cells; experiment: Phospho-S6 by flow cytometry; type: cell-based, human; conditions: 24 hours
Description: To determine whether MPC-0767 can promote the degradation of FLT3-ITD and abolish downstream signaling, MV-4-11 and MOLM-13 cells were treated with vehicle or MPC-0767 (1 μM) for 24 hours. Cells were harvested for flow cytometry to assess cell surface FLT3 protein abundance. In addition, the measurement of a key phosphorylation site of S6 (phospho-S6) was used as a marker for oncogenic FLT3-ITD signaling (Zimmerman et al., Blood. 2013 122(22): 3607-3615). Indeed, in both MV-4-11 and MOLM-13 cells treated with MPC-0767 there was a >65% reduction in cell surface FLT3 (FIGS. 10A and 10B, respectively) and >70% reduction in phospho-S6 (FIGS. 10C and 10D, respectively).
We next explored whether the synergistic activity of MPC-0767 and ATO was due to a more complete abrogation of FLT3-ITD oncogenic signaling. […] After this time cells were harvested for the assessment of cell surface FLT3 expression by flow cytometry. To additionally measure the effects of abrogating FLT3, we assessed phospho-ERK (pERK) and phospho-S6 (pS6), as these are two known downstream effectors.

[7] = system: FLT3 mutants in BaF3 cells; experiment: Cell surface FLT3 in transfected BaF3 cells by flow cytometry; type: cell-based, murine; conditions: BaF3, cell surface expression, 24 hours
Description: (§3) We next sought to determine whether MPC-0767 can also promote the degradation of other FLT3 mutants that have been reported to confer resistance to FLT3 inhibitors. To do this, we again utilized the BaF3 murine cell line into which the following FLT3 mutants were transfected: FLT3 wild-type, FLT3-ITD, D835V, FLT3-ITD D835V, D835Y, FLT3-ITD D835Y, D835H, FLT3-ITD D835H, F691L, or FLT3-ITD F691L.
(§4) After puromycin selection, cells were treated with increasing concentrations of MPC-0767 (20-10000 nM) for 24 hours and then stained for cell surface expression of FLT3 (and mutants) and the median signal expression was quantified by flow cytometry.

[8] = system: FLT3 WT in BaF3 cells; experiment: as above; type: cell-based, murine; conditions: BaF3, 20-10000 nM, 24 hours
Description: as §3, §4

[9] = system: EGFR exon20 V769_D770insASV mutant in BaF3 cells; experiment: Cell surface EGFR expression in BaF3 cells by flow cytometry; type: cell-based, murine; conditions: Mus musculus; BaF3, 24 hours; read-out: EC50 for reduction of cell surface EGFR exon20 V769_D770insASV mutant
Description: as §1, §2

[10] = system: EGFR wild type (WT) in BaF3 cells; experiment: as above; type: cell-based, murine; conditions: Mus musculus; BaF3, 24 hours; read-out: EC50 for reduction of cell surface EGFR WT
Description: as §1, §2

C[C@H](N)C(=O)O[C@@H](C)C(=O)N1CCC(CCn2c(Sc3cc4c(cc3Br)OCO4)nc3c(N)ncnc32)CC1 [MPC-0767]
EC50 ([1]; Homo sapiens, THP-1): > 10 µM | MPC-0767 Sensitivity [1]: Resistant (EC50 values above 1 μM considered resistant) | EC50 ([2]; Homo sapiens, MOLM-13-R-PKC412, 72 hours): 0.727 µM | fold difference in EC50, midostaurin-resistant vs control cells ([2]; MOLM-13-R-PKC412 vs MOLM-13-LUC): less than 1.5 fold | EC50 ([3]; Mus musculus, BaF3 EGFR exon20 V769_D770insASV, 72 hours): 0.236 µM | sensitivity to MPC-0767 relative to parental cells ([3]; mutant vs parental BaF3, 72 hours): approximately 3 times | EC50 [4]: 0.753 µM | EC50 ([5]; Homo sapiens, NOMO-1): 1.45 µM | MPC-0767 Sensitivity [5]: Resistant (EC50 values above 1 μM considered resistant) | reduction in phospho-S6 ([6]; MOLM-13, 1 μM): > 70% | pS6 level ([6]; MOLM-13, MPC-0767 800 nM, ATO 625 nM or combination): reduced | potency against FLT3 mutants compared to FLT3 WT [7]: approximately 5 × | cell surface expression of FLT3 WT [8]: reduced cell surface expression of FLT3 WT | EC50 [9]: 0.2 µM | EC50 [10]: 1 µM
